From US4333952A, “Growth promotors for ruminants” (Beecham Group Limited, priority 1979, dated 1982) come the findings set out here.

Where two headings read alike, the source gives them in different places.

In this test the test system is rumen fluid. In words: in vitro incubation of buffered rumen fluid (methane inhibition, propionate enhancement, headspace gases and volatile fatty acids). It is filed as cell-based, sheep. As to conditions: for inhibition at 10 ppm / activation at 10 ppm / inhibition at 2 ppm / inhibition at 3 ppm / activation at 2 ppm / activation at 3 ppm / inhibition at 5 ppm / activation at 5 ppm: Ovis aries. As to the method:
The compounds were tested for their ability to reduce or inhibit methane production and to enhance propionate formation. The method used is as follows:
The screening system is in vitro incubation of buffered rumen fluid with, or without, the addition of the test compound.
Rumen fluid is removed by suction from two rumenfistulated sheep, just before feeding. The fluid is strained and mixed. The incubation is for twenty hours in a shaking water-bath at 39° C. Each incubation flask contains: 30 ml McDougall's bicarbonate buffer, pH 6.7-6.9, 10 ml strained rumen fluid, 200 mg substrate (the substrate is a ground sample of the diet on which the sheep has been fed) and 1 ml 10% aqueous ethanol containing 0.2% Tween 80 and the compound under examination. Samples are taken at the end of the incubation period for analysis of headspace gases and volatile fatty acids, by g.l.c.
The compounds were tested at 10 ppm/flask, except for the compounds of Examples 9 and 10 which were tested at 5 ppm/flask.
Selected compounds were also tested according to the above protocol at doses of 2 and 3 ppm, the results being given in Table 2 below.
The compound of Example 1 was further tested in an in vitro a dose response study, according to the protocol above, at the doses shown in Table 3 below.

[1] abbreviates: 10 ppm/flask, 20 h, 39° C., read-out: % inhibition of methane.
Where [2] appears, read: 20 h, read-out: VFA production % change from control, Acetate.
[3] abbreviates: 20 h, read-out: VFA production % change from control, Butyrate.
Where [4] appears, read: 20 h, read-out: VFA production % change from control, Propionate.
The mark [5] stands for this setting: 20 h, read-out: VFA production % change from control, TVFA.
Setting [6] is: 20 h, read-out: VFA production % difference from control, Acetate.
Where [7] appears, read: 20 h, read-out: VFA production % difference from control, Butyrate.
[8] abbreviates: 20 h, read-out: VFA production % difference from control, Propionate.
[9] abbreviates: 20 h, read-out: VFA production % difference from control, TVFA.
Where [10] appears, read: Table 2, 2 ppm, read-out: % inhibition of methane.
Setting [11] is: Table 2, 3 ppm, read-out: % inhibition of methane.
[12] abbreviates: 5 ppm/flask (Examples 9 and 10), 20 h, 39° C.

Regarding `OC(CN(CC(O)C(Cl)(Cl)Cl)c1ccccc1)C(Cl)(Cl)Cl` (centres unmarked) [Example 7, N,N-Di (3,3,3-Trichloro-2-hydroxypropyl)aniline], under “10 ppm/flask, 20 h, 39° C.”, the “% hydrogen present” value is listed as 2.17%, the “Molar % VFA Acetate” value stood at 61.9 Molar %, the “Molar % VFA Butyrate” value stood at 9.72 Molar % and the “Molar % VFA Propionate” value stood at 24.8 Molar %. The TVFA (10 ppm/flask, 20 h, 39° C.) is 56.2 μM/ml. The inhibition at 10 ppm under setting [1] is 87.9%. For the same compound, the inhibition at 10 ppm (10 ppm/flask, 20 h, 39° C., read-out: VFA production % difference from control, Acetate) came to 40.8%. In addition, the activation at 10 ppm (10 ppm/flask, 20 h, 39° C., read-out: VFA production % difference from control, Butyrate) was determined as 18.9%. In addition, under “10 ppm/flask, 20 h, 39° C., read-out: VFA production % difference from control, Propionate”, the activation at 10 ppm was found to be 39%. Besides, the inhibition at 10 ppm (10 ppm/flask, 20 h, 39° C., read-out: VFA production % difference from control, TVFA) was 24.7%.
Consider `OC(COc1ccccc1Br)C(Cl)(Cl)Cl` (centres unmarked) [Example 3, 1,1,1-Trichloro-3-o-bromophenoxypropan-2-ol], for which the “% hydrogen present” value (10 ppm/flask, 20 h, 39° C.) stood at 2.30%. In addition, the “Molar % VFA Acetate” value (10 ppm/flask, 20 h, 39° C.) came to 59.1 Molar %. Besides, the “Molar % VFA Butyrate” value (10 ppm/flask, 20 h, 39° C.) was found to be 14.2 Molar %. The “Molar % VFA Propionate” value (10 ppm/flask, 20 h, 39° C.) turned out to be 24.1 Molar %. Further, where the note is “10 ppm/flask, 20 h, 39° C.”, the TVFA worked out at 57.2 μM/ml. The inhibition at 2 ppm reads like this: under setting [2], 9.1%; under setting [5], 4.5%; under setting [10], 17.8%. Besides, the inhibition at 3 ppm runs as follows: under setting [2], 35.5%; under setting [5], 15.6%; under setting [11], 54.7%. The activation at 2 ppm under setting [3] stood at 3.4% and the activation at 2 ppm under setting [4] came to 11.1%. For the same compound, the activation at 3 ppm reads like this: under setting [3], 26.8%; under setting [4], 43.1%. Also, the inhibition at 10 ppm is, setting by setting: under setting [6], 36.8%; under setting [9], 16.7%; under setting [1], 97.8%. Also, the activation at 10 ppm under setting [7] is 25% and the activation at 10 ppm under setting [8] turned out to be 54.3%. Moreover, the “% hydrogen in headspace gases” value (Table 2, 2 ppm) was determined as 0.02% and the “% hydrogen in headspace gases” value (Table 2, 3 ppm) came to 0.66%.
On to `O=C(CC(O)C(Cl)(Cl)Cl)c1ccc(Cl)cc1` (centres unmarked) [Example 8, 1-p-Chlorophenacyl-2-hydroxy-3-trichloropropane], for which, for the setting “10 ppm/flask, 20 h, 39° C.”, the “% hydrogen present” value is given as 0.05%, the “Molar % VFA Acetate” value came out at 63.5 Molar %, the “Molar % VFA Butyrate” value is listed as 9.8 Molar % and the “Molar % VFA Propionate” value came to 23.7 Molar %. Also, the TVFA (10 ppm/flask, 20 h, 39° C.) is recorded as 50.5 μM/ml. Further, the inhibition at 10 ppm under setting [6] is 23.1%. Under setting [7], the activation at 10 ppm stood at 50.7%. Further, under setting [8], the activation at 10 ppm turned out to be 42.4%. Further, under setting [9], the inhibition at 10 ppm came to 6.5%. In addition, the inhibition at 10 ppm under setting [1] came to 34.1%.
On to `OC(COc1ccc(Cl)cc1)C(Cl)(Cl)Cl` (centres unmarked) [Example 2, 1,1,1-Trichloro-3-p-chlorophenoxypropan-2-ol], for which, where the note is “10 ppm/flask, 20 h, 39° C.”, the “% hydrogen present” value was 2.49%. Further, the “Molar % VFA Acetate” value (10 ppm/flask, 20 h, 39° C.) is reported as 58.5 Molar %. For the same compound, the “Molar % VFA Butyrate” value (10 ppm/flask, 20 h, 39° C.) was found to be 14.1 Molar %. Further, the “Molar % VFA Propionate” value (10 ppm/flask, 20 h, 39° C.) turned out to be 24.1 Molar %. Besides, for the setting “10 ppm/flask, 20 h, 39° C.”, the TVFA is recorded as 56.9 μM/ml. The inhibition at 2 ppm runs as follows: under setting [2], 22.6%; under setting [5], 11.5%; under setting [10], 33.3%. Moreover, the inhibition at 3 ppm is, setting by setting: under setting [2], 39%; under setting [5], 22.7%; under setting [11], 54.5%. The activation at 2 ppm is 2% under setting [3] and 25.2% under setting [4]. Further, the activation at 3 ppm was determined as 10.2% under setting [3] and 28.4% under setting [4]. Moreover, the inhibition at 10 ppm under setting [6] came to 38.5%, the inhibition at 10 ppm under setting [9] stood at 17.5% and the inhibition at 10 ppm under setting [1] was found to be 98.5%. Moreover, the activation at 10 ppm under setting [7] stood at 22.7% and the activation at 10 ppm under setting [8] turned out to be 53.2%. Also, the “% hydrogen in headspace gases” value reads like this: (Table 2, 2 ppm) 0.09%; (Table 2, 3 ppm) 0.8%.
Turning to `CN(CC(O)C(Cl)(Cl)Cl)c1ccccc1` (centres unmarked) [Example 5, 1,1,1-Trichloro-3-N-methylanilinopropan-2-ol], the “% hydrogen present” value (10 ppm/flask, 20 h, 39° C.) was 1.9%. Moreover, for the setting “10 ppm/flask, 20 h, 39° C.”, the “Molar % VFA Acetate” value worked out at 59.1 Molar %. Also, where the note is “10 ppm/flask, 20 h, 39° C.”, the “Molar % VFA Butyrate” value is recorded as 14.0 Molar %. Further, the “Molar % VFA Propionate” value (10 ppm/flask, 20 h, 39° C.) is listed as 24.0 Molar %. Also, for the setting “10 ppm/flask, 20 h, 39° C.”, the TVFA stood at 57.5 μM/ml. In addition, the inhibition at 2 ppm under setting [2] is 4.3%, the inhibition at 2 ppm under setting [5] was 3.1% and the inhibition at 2 ppm under setting [10] turned out to be 4.2%. Besides, the activation at 2 ppm came to 0.8% under setting [3] and 0.8% under setting [4]. For the same compound, the inhibition at 10 ppm reads like this: under setting [6], 36.3%; under setting [9], 16.1%; under setting [1], 92.7%. Further, the activation at 10 ppm runs as follows: under setting [7], 23.9%; under setting [8], 54.6%. Moreover, the “% hydrogen in headspace gases” value (Table 2, 2 ppm) stood at 0.02%.
On to `CN1CCN(CC(O)C(Cl)(Cl)Cl)CC1` (centres unmarked) [Compound A, reference compound], for which, where the note is “10 ppm/flask, 20 h, 39° C.”, the “% hydrogen present” value is 0.062%, the “Molar % VFA Acetate” value turned out to be 65.3 Molar %, the “Molar % VFA Butyrate” value is recorded as 9.13 Molar % and the “Molar % VFA Propionate” value came to 21.9 Molar %. Moreover, the TVFA (10 ppm/flask, 20 h, 39° C.) worked out at 56.7 μM/ml. The inhibition at 10 ppm under setting [6] was found to be 35%. The activation at 10 ppm under setting [7] is 9%. Moreover, the activation at 10 ppm under setting [8] was found to be 19.9%. For the same compound, the inhibition at 10 ppm under setting [9] amounted to 22.6%. Further, under setting [1], the inhibition at 10 ppm was found to be 50.6%.
As for `OC(CC(O)C(Cl)(Cl)Cl)c1ccc(Cl)cc1` (centres unmarked) [Example 9, 1-p-Chlorophenyl-1,3-dihydroxy-4,4,4-trichlorobutane], under setting [12], the “% hydrogen present” value came to 0.64%, the “Molar % VFA Acetate” value turned out to be 59.9 Molar %, the “Molar % VFA Butyrate” value is listed as 10.7 Molar % and the “Molar % VFA Propionate” value amounted to 26.4 Molar %. Moreover, the TVFA under setting [12] is on record as 47.7 μM/ml. For the same compound, the inhibition at 5 ppm under setting [6] worked out at 38.5%. In addition, the activation at 5 ppm under setting [7] was 59.7%. In addition, the activation at 5 ppm under setting [8] came out at 53.2%. Moreover, the inhibition at 5 ppm under setting [9] came out at 15.5%. Also, for the setting “5 ppm/flask (Examples 9 and 10), 20 h, 39° C., read-out: % inhibition of methane”, the inhibition at 5 ppm was 50.7%.
As for `COc1cccc(NCC(O)C(Cl)(Cl)Cl)c1` (centres unmarked) [Example 6, 1,1,1-Trichloro-3-(m-methoxy)anilinopropan-2-ol], the “% hydrogen present” value (10 ppm/flask, 20 h, 39° C.) came out at 2.59%. Also, under “10 ppm/flask, 20 h, 39° C.”, the “Molar % VFA Acetate” value is 63.2 Molar %. Also, the “Molar % VFA Butyrate” value (10 ppm/flask, 20 h, 39° C.) stood at 8.50 Molar %. The “Molar % VFA Propionate” value (10 ppm/flask, 20 h, 39° C.) stood at 24.9 Molar %. Besides, the TVFA (10 ppm/flask, 20 h, 39° C.) was determined as 55.4 μM/ml. Also, the inhibition at 2 ppm is 9.3% under setting [2], 4.5% under setting [5] and 11.5% under setting [10]. Further, the inhibition at 3 ppm under setting [2] is 41.8%, the inhibition at 3 ppm under setting [5] turned out to be 21.5% and the inhibition at 3 ppm under setting [11] worked out at 77.8%. In addition, the activation at 2 ppm reads like this: under setting [3], 15.3%; under setting [4], 12.6%. Also, the activation at 3 ppm by setting is: under setting [3], 15.2%; under setting [4], 41.7%. In addition, the inhibition at 10 ppm turned out to be 40.4% under setting [6], 25.3% under setting [9] and 97.5% under setting [1]. For the same compound, the activation at 10 ppm is, setting by setting: under setting [7], -6.6%; under setting [8], 36.8%. Also, the “% hydrogen in headspace gases” value came out at 0.03% (Table 2, 2 ppm) and 1.09% (Table 2, 3 ppm).
